Measurements as given in US10750743B2, “Pyridazinone herbicides” (E.I. DU PONT DE NEMOURS AND COMPANY, priority 2015, dated 2020).

How the values were obtained:
Type in all cases: in vivo
[1] = test system: wheat (Triticum aestivum); test: Test A postemergence application, visual injury rating; conditions: for plant injury at 125 g/ha: 125 g ai/ha
Outline: (§1)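 Injury ratings, 0 (no effect) to 100 (complete control), were scored visually versus untreated plants roughly 10 d after treatment under greenhouse conditions. Treatments used surfactant-containing solvent formulations, sprayed onto soil preemergence or onto one- to two-leaf seedlings (2-10 cm) postemergence, grown in a loam-sand mix.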

[2] = test system: blackgrass (Alopecurus myosuroides); test: as above; conditions: Alopecurus myosuroides, post-emergence, 240 h, 0 to 100 scale, 0 no effect, 100 complete control, read-out: Blackgrass plant response rating; for pest or weed control at 125 g/ha: 125 g ai/ha
Outline: as §1

[3] = test system: ragweed (common ragweed, Ambrosia elatior); test: as above; conditions: for pest or weed control at 125 g/ha: 125 g ai/ha
Outline: as §1

corn (Zea mays) = test: as above; conditions: for plant injury at 125 g/ha: 125 g ai/ha
Outline: as §1

kochia (Kochia scoparia) = test: as above; conditions: for pest or weed control at 125 g/ha: 125 g ai/ha
Outline: as §1

[4] = test system: galium (catchweed bedstraw, Galium aparine); test: as above; conditions: for pest or weed control at 125 g/ha: 125 g ai/ha
Outline: as §1

[5] = test system: foxtail, giant (giant foxtail, Setaria faberii); test: as above; conditions: for pest or weed control at 125 g/ha: 125 g ai/ha
Outline: as §1

[6] = test system: ryegrass, It. (Italian ryegrass, Lolium multiflorum); test: as above; conditions: for pest or weed control at 125 g/ha: 125 g ai/ha
Outline: as §1

[7] = test system: pigweed (Amaranthus retroflexus); test: as above; conditions: for pest or weed control at 125 g/ha: 125 g ai/ha
Outline: as §1

[8] = test system: barnyardgrass (Echinochloa crus-galli); test: as above; conditions: Echinochloa crus-galli, post-emergence, 240 h, 0 to 100 scale, 0 no effect, 100 complete control, read-out: Barnyardgrass plant response rating; for pest or weed control at 125 g/ha: 125 g ai/ha
Outline: as §1

[9] = test system: ragweed (common ragweed, Ambrosia elatior); test: Test A preemergence, directed soil spray, visual injury rating; conditions: Ambrosia artemisiifolia, pre-emergence, 240 h, 0 is no effect, 100 is complete control, read-out: Plant response rating (0 to 100 scale), Ragweed; for pest or weed control at 125 g/ha: 125 g ai/ha
Outline: as §1

[10] = test system: foxtail, giant (giant foxtail, Setaria faberii); test: as above; conditions: Setaria faberi, pre-emergence, 240 h, 0 is no effect, 100 is complete control, read-out: Plant response rating (0 to 100 scale), Foxtail, Giant; for pest or weed control at 125 g/ha: 125 g ai/ha
Outline: as §1

[11] = test system: ryegrass, It. (Italian ryegrass, Lolium multiflorum); test: as above; conditions: Lolium multiflorum, pre-emergence, 240 h, 0 is no effect, 100 is complete control, read-out: Plant response rating (0 to 100 scale), Ryegrass, It.; for pest or weed control at 125 g/ha: 125 g ai/ha
Outline: as §1

[12] = test system: barnyardgrass (Echinochloa crus-galli); test: as above; conditions: Echinochloa crus-galli, pre-emergence, 240 h, 0 is no effect, 100 is complete control, read-out: Plant response rating (0 to 100 scale), Barnyardgrass; for pest or weed control at 125 g/ha: 125 g ai/ha
Outline: as §1

rice (Oryza sativa) = test: Test B flooded paddy test, visual rating; conditions: Oryza sativa, 360 h; Flood, 250 g ai/ha, applied to paddy water, rated after 13 to 15 d; read-out: Rice plant response rating (0 to 100 scale, 0 is no effect, 100 is complete control)
Outline: (§2)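 Ratings use a 0-100 visual scale, where 100 is complete control, and compare treated plants with controls after 13 to 15 d of greenhouse growth. Compound went straight into paddy water kept 3 cm over the soil surface, applied to seedlings at the 2-leaf stage.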

[13] = test system: sedge, umbrella (small-flower umbrella sedge, Cyperus difformis); test: Test B flooded paddy test, visual rating; conditions: Cyperus difformis, 360 h; Flood, 250 g ai/ha, applied to paddy water, rated after 13 to 15 d; read-out: Sedge, Umbrella plant response rating (0 to 100 scale, 0 is no effect, 100 is complete control)
Outline: as §2

[14] = test system: ducksalad (Heteranthera limosa); test: Test B flooded paddy test, visual rating; conditions: Heteranthera limosa, 360 h; Flood, 250 g ai/ha, applied to paddy water, rated after 13 to 15 d; read-out: Ducksalad plant response rating (0 to 100 scale, 0 is no effect, 100 is complete control)
Outline: as §2

[15] = test system: barnyardgrass (Echinochloa crus-galli); test: Test B flooded paddy test, visual rating; conditions: Echinochloa crus-galli, 360 h; Flood, 250 g ai/ha, applied to paddy water, rated after 13 to 15 d; read-out: Barnyardgrass plant response rating (0 to 100 scale, 0 is no effect, 100 is complete control)
Outline: as §2

[16] = 31 g ai/ha, 0 is no effect, 100 is complete control
[17] = Triticum aestivum, post-emergence, 240 h, 0 to 100 scale, 0 no effect, 100 complete control, read-out: Wheat plant response rating
[18] = Ambrosia artemisiifolia, post-emergence, 240 h, 0 to 100 scale, 0 no effect, 100 complete control, read-out: Ragweed plant response rating
[19] = Zea mays, post-emergence, 240 h, 0 to 100 scale, 0 no effect, 100 complete control, read-out: Corn plant response rating
[20] = Bassia scoparia, post-emergence, 240 h, 0 to 100 scale, 0 no effect, 100 complete control, read-out: Kochia plant response rating
[21] = Galium, post-emergence, 240 h, 0 to 100 scale, 0 no effect, 100 complete control, read-out: Galium plant response rating
[22] = Setaria faberi, post-emergence, 240 h, 0 to 100 scale, 0 no effect, 100 complete control, read-out: Foxtail, Giant plant response rating
[23] = Lolium multiflorum, post-emergence, 240 h, 0 to 100 scale, 0 no effect, 100 complete control, read-out: Ryegrass, It. plant response rating
[24] = Amaranthus retroflexus, post-emergence, 240 h, 0 to 100 scale, 0 no effect, 100 complete control, read-out: Pigweed plant response rating

Structure (SMILES)	plant injury at 125 g/ha [1, 17] [%]	pest or weed control at 125 g/ha [2] [%]	pest or weed control at 125 g/ha [3, 18] [%]	plant injury at 125 g/ha (corn (Zea mays); [19]) [%]	pest or weed control at 125 g/ha (kochia (Kochia scoparia); [20]) [%]	pest or weed control at 125 g/ha [4, 21] [%]	pest or weed control at 125 g/ha [5, 22] [%]	pest or weed control at 125 g/ha [6, 23] [%]	pest or weed control at 125 g/ha [7, 24] [%]	pest or weed control at 125 g/ha [8] [%]	pest or weed control at 125 g/ha [9] [%]	pest or weed control at 125 g/ha [10] [%]	pest or weed control at 125 g/ha [11] [%]	pest or weed control at 125 g/ha [12] [%]	plant injury at 250 g/ha (rice (Oryza sativa)) [%]	pest or weed control at 250 g/ha [13] [%]	pest or weed control at 250 g/ha [14] [%]	pest or weed control at 250 g/ha [15] [%]	further results
COc1c(C)nn(C)c(=O)c1-c1ccc(F)c2ccoc12 [Compound 69, 4-(4-fluoro-7-benzofuranyl)-5-methoxy-2,6-dimethyl-3(2H)-pyridazinone]	0	0	0	0	0	0	0	0	0	0	0	0	0	0	0	0	0	0	Plant response rating (0 to 100 scale), Wheat [1, 16]: 0; pest or weed control at 31 g/ha ([2]; 31 g ai/ha): 0%; Plant response rating (0 to 100 scale), Ragweed [3, 16]: 0; Plant response rating (0 to 100 scale), Corn (corn (Zea mays); [16]): 0; Plant response rating (0 to 100 scale), Kochia (kochia (Kochia scoparia); [16]): 0; Plant response rating (0 to 100 scale), Galium [4, 16]: 0; Plant response rating (0 to 100 scale), Foxtail, Giant [5, 16]: 0; Plant response rating (0 to 100 scale), Ryegrass, It. [6, 16]: 0; Plant response rating (0 to 100 scale), Pigweed [7, 16]: 0; pest or weed control at 31 g/ha ([8]; 31 g ai/ha): 0%; pest or weed control at 31 g/ha ([9]; 31 g ai/ha): 0%; pest or weed control at 31 g/ha ([10]; 31 g ai/ha): 0%; pest or weed control at 31 g/ha ([11]; 31 g ai/ha): 0%; pest or weed control at 31 g/ha ([12]; 31 g ai/ha): 0%
Cc1ccc2sccc2c1-c1c(O)c(C)nn(C)c1=O [Compound 29, 5-hydroxy-2,6-dimethyl-4-(5-methylbenzo[b]thien-4-yl)-3(2H)-pyridazinone]	20	70	80	20	90	90	20	100	90	20	30	10	90	10	0	0	0	0	plant injury at 500 g/ha ([1]; Triticum aestivum, post-emergence, 240 h, 500 g ai/ha, 0 to 100 scale, 0 no effect, 100 complete control, read-out: Wheat plant response rating): 30%; pest or weed control at 500 g/ha ([2]; 500 g ai/ha): 80%; pest or weed control at 500 g/ha ([3]; Ambrosia artemisiifolia, post-emergence, 240 h, 500 g ai/ha, 0 to 100 scale, 0 no effect, 100 complete control, read-out: Ragweed plant response rating): 80%; plant injury at 500 g/ha (corn (Zea mays); Zea mays, post-emergence, 240 h, 500 g ai/ha, 0 to 100 scale, 0 no effect, 100 complete control, read-out: Corn plant response rating): 50%; pest or weed control at 500 g/ha (kochia (Kochia scoparia); Bassia scoparia, post-emergence, 240 h, 500 g ai/ha, 0 to 100 scale, 0 no effect, 100 complete control, read-out: Kochia plant response rating): 100%; pest or weed control at 500 g/ha ([4]; Galium, post-emergence, 240 h, 500 g ai/ha, 0 to 100 scale, 0 no effect, 100 complete control, read-out: Galium plant response rating): 100%; pest or weed control at 500 g/ha ([5]; Setaria faberi, post-emergence, 240 h, 500 g ai/ha, 0 to 100 scale, 0 no effect, 100 complete control, read-out: Foxtail, Giant plant response rating): 80%; pest or weed control at 500 g/ha ([6]; Lolium multiflorum, post-emergence, 240 h, 500 g ai/ha, 0 to 100 scale, 0 no effect, 100 complete control, read-out: Ryegrass, It. plant response rating): 90%; pest or weed control at 500 g/ha ([7]; Amaranthus retroflexus, post-emergence, 240 h, 500 g ai/ha, 0 to 100 scale, 0 no effect, 100 complete control, read-out: Pigweed plant response rating): 100%; pest or weed control at 500 g/ha ([8]; 500 g ai/ha): 70%; pest or weed control at 500 g/ha ([9]; 500 g ai/ha): 90%; pest or weed control at 500 g/ha ([10]; 500 g ai/ha): 90%; pest or weed control at 500 g/ha ([11]; 500 g ai/ha): 100%; pest or weed control at 500 g/ha ([12]; 500 g ai/ha): 90%
